pIC50: −log10 of the molar value.
Columns and labels:
[1] = test system: human PRP; assay: Human platelet aggregation inhibition test; assay type: cell-based; settings: ADP-induced aggregation (1×10^−5 M ADP) in human platelet-rich plasma
Protocol: Blood collected from healthy human volunteers in aqueous trisodium citrate solution was centrifuged at 150 g for 15 min and the upper layer was recovered to obtain platelet-rich plasma (PRP). The residual blood was centrifuged at 3000 g for 10 min and the supernatant was collected as platelet-poor plasma (PPP). Platelet concentration in the PRP was determined using the Z series Beckman Coulter particle counter (Beckman, Fullerton, Calif.) and adjusted to 250,000 platelets/μL using PPP. 480 μL of PRP was pre-incubated at 37° C. and stirred at 1200 rpm with 10 μL aqueous test compound solution for 1 min prior to induction of aggregation by the addition of 10 μL of aqueous adenosine diphosphate (ADP) solution to adjust the final ADP concentration in the PRP to 1×10^−5 M. The maximal amplitude of aggregation response within 3 min was determined and measured in triplicate using the Chronolog model 490 aggregometer (Chrono-log Corp., Havertown, Pa.). Percent inhibition of aggregation was calculated from the maximum decrease in optical density of the control (addition of water in place of the test compound solution) sample and of the samples containing test compound. The test compound was added to adjust the final concentration to the range 10^−9 to 10^−4 M, and IC50 values were determined by inhibition percentage of aggregation at each concentration.

[2] = target: human prostacyclin (PGI2) receptor (Homo sapiens (Human), UniProt P43119); assay: HTRF assay for direct cAMP measurement; assay type: cell-based; settings: recombinant CHO-K1 cells stably transfected with human prostacyclin receptor; cAMP increase
Excerpt: Compounds were screened for agonists of the human prostacyclin (PGI2) receptor using the HTRF® assay for direct cAMP measurement (Gabriel et al., ASSAY and Drug Development Technologies, 1:291-303, 2003) and recombinant CHO-K1 cells stably transfected with human prostacyclin receptor. CHO-K1 cells were obtained from ATCC® (Manassas, Va.; Catalog # CCL-61). An agonist of the prostacyclin receptor was detected in HTRF® assay for direct cAMP measurement as a compound which increased cAMP concentration. HTRF® assay also was used to determine EC50 values for prostacyclin receptor agonists.
The HTRF® assay kit was purchased from Cisbio-US, Inc. (Bedford, Mass.; Catalog #62AM4PEC). The HTRF® assay supported by the kit is a competitive immunoassay between endogenous cAMP produced by the CHO-K1 cells and tracer cAMP labeled with the dye d2. The tracer binding is visualized by a monoclonal anti-cAMP antibody labeled with Cryptate. The specific signal (i.e., fluorescence resonance energy transfer, FRET) is inversely proportional to the concentration of unlabeled cAMP in the standard or sample.
The fluorescence ratio (665 nm/620 nm) of the standards (0.17 to 712 nM cAMP) included in the assay was calculated and used to generate a cAMP standard curve according to the kit manufacturer's instructions. The fluorescence ratio of the samples (test compound or compound buffer) was calculated and used to deduce respective cAMP concentrations by reference to the cAMP standard curve.
The HTRF® assay was carried out using a two-step protocol essentially according to the kit manufacturer's instructions, in 20 μL total volume per well in 384-well plate format (ProxiPlates; PerkinElmer, Fremont, Calif.; catalog #6008280). To each of the experimental wells was transferred 3000 recombinant CHO-K1 cells in 5 μL assay buffer (phosphate buffered saline containing calcium chloride and magnesium chloride (Invitrogen, Carlsbad, Calif.; catalog #14040) supplemented with IBMX ([…]) and rolipram ([…]) (phosphodiesterase inhibitors; Sigma-Aldrich, St. Louis, Mo.; catalog #15879 and catalog # R6520, respectively) and 0.1% bovine serum albumin (BSA) fraction V (Sigma-Aldrich; catalog # A3059)), followed by test compound in 5 μL assay buffer or 5 μL assay buffer. The plate was then incubated at room temperature for 1 h. To each well was then added 5 μL cAMP-d2 conjugate in lysis buffer and 5 μL Cryptate conjugate in lysis buffer according to the kit manufacturer's instructions. The plate was then further incubated at room temperature for 1 h, after which the assay plate was read.
The HTRF® readout was accomplished using a PHERAstar (BMG LABTECH Inc., Durham, N.C.) or EnVision™ (PerkinElmer, Fremont Calif.) microplate reader.

[3] = test system: MCT-induced pulmonary arterial hypertension in rat; assay: Rat monocrotaline (MCT) model of pulmonary arterial hypertension; assay type: in vivo; settings: 30 mg/kg oral gavage twice a day for 21 days, male Wistar rats, 60 mg/kg MCT s.c.; FIG. 1
Protocol: Male Wistar rats (100-150 g at start of study) (Charles River Laboratories, Wilmington, Mass.) were housed two per cage and maintained in a humidity-(40-60%) and temperature-(68-72° F.) controlled facility on a 12 hr: 12 hr light/dark cycle (lights on at 6:30 am) with free access to food (Harlan Teklad, Orange Calif., Rodent Diet 8604) and water. Rats were allowed one week of habituation to the animal facility before testing.
The rat monocrotaline (MCT) model is a standard and well-accepted model of pulmonary arterial hypertension. MCT induces acute pulmonary endothelial damage associated with pulmonary vascular inflammation. […]
Rats were randomly given a single subcutaneous injection of either 60 mg/kg MCT (Sigma, St. Louis, Mo.) or 0.9% saline (sham) and assigned to receive oral administration of 20% hydroxypropyl beta-cyclodextrin (vehicle) or test compound (30 mg/kg; FIG. 1). […] Heart chamber weights were measured on Day 22. […] The ratio of right ventricular (RV) weight to left ventricle plus septum (LV+S) weight (this ratio is indicated as “RV/(LV+S)” in FIG. 1) was calculated as an index of the hypertrophic response to the induced pulmonary arterial hypertension and, as such, as an index of a test compound's therapeutic efficacy for pulmonary arterial hypertension.

human prostacyclin (PGI2) receptor, sequence (P43119 whole entry): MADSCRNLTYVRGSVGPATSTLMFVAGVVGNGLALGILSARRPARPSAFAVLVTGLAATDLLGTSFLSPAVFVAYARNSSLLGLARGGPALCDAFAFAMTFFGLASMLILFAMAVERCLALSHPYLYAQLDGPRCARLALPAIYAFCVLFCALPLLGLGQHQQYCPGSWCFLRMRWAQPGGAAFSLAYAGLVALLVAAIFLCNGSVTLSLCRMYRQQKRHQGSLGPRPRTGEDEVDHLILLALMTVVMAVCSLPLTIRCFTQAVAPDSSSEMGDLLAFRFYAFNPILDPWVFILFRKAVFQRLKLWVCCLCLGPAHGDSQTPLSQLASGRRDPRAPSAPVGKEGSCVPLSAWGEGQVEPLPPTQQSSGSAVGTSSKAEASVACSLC

| Structure (SMILES) | pIC50 [1] | EC50 [2] [nM] | right ventricle hypertrophic response, RV/(LV+S) [3] |
| --- | --- | --- | --- |
| O=C(O)COC[C@H]1CC[C@@H](Cn2nc(-c3ccccc3)c(-c3cccc(F)c3F)cc2=O)CC1 [Compound 8, 2-(((1s,4s)-4-((4-(2,3-difluorophenyl)-6-oxo-3-phenylpyridazin-1(6H)-yl)methyl)cyclohexyl)methoxy)acetic acid] | 7.17 | – | – |
| O=C(O)COC[C@H]1CC[C@@H](Cn2nc(-c3ccccc3)c(-c3cccc(Cl)c3F)cc2=O)CC1 [Compound 31, 2-(((1s,4s,)-4-((4-(3-chloro-2-fluorophenyl)-6-oxo-3-phenylpyridazin-1(6H)-yl)methyl)cyclohexyl)methoxy)acetic acid] | 7.68 | 31 | – |
| Cc1ccc(-c2nc(=O)n(C[C@H]3CC[C@@H](COCC(=O)O)CC3)nc2-c2ccc(C)cc2)cc1 [Compound 43, 2-(((1s,4s)-4-((3-oxo-5,6-di-p-tolyl-1,2,4-triazin-2(3H)-yl)methyl)cyclohexyl)methoxy)acetic acid] | 6.89 | 36 | – |
| O=C(O)COC[C@H]1CC[C@@H](Cn2nc(-c3ccccc3)c(-c3cccc(Cl)c3)nc2=O)CC1 [Compound 67, 2-(((1s,4s)-4-((5-(3-chlorophenyl)-3-oxo-6-phenyl-1,2,4-triazin-2(3H)-yl)methyl)cyclohexyl)methoxy)acetic acid] | – | 73 | – |
| Cc1ccc(-c2nn(C[C@H]3CC[C@@H](COCC(=O)O)CC3)c(=O)nc2-c2ccccc2)cc1 [Compound 68, 2-(((1s,4s)-4-((3-oxo-5-phenyl-6-p-tolyl-1,2,4-triazin-2(3H)-yl)methyl)cyclohexyl)methoxy)acetic acid] | – | – | inhibited the hypertrophic response |
| COc1ccc(-c2nn(C[C@H]3CC[C@@H](COCC(=O)O)CC3)c(=O)nc2-c2ccccc2)cc1 [Compound 69, 2-(((1s,4s)-4-((6-(4-methoxyphenyl)-3-oxo-5-phenyl-1,2,4-triazin-2(3H)-yl)methyl)cyclohexyl)methoxy)acetic acid] | 7.66 | 8 | – |

— patent US10793529B2, “Substituted pyridazines and 1,2,4-triazines as prostacyclin receptor modulators” (Arena Pharmaceuticals, Inc., priority 2008, dated 2020)
